Measured values: patent US12247045B2, “MAP4K4 inhibitors” (Imperial College Innovations Limited, priority 2018, dated 2025)
Where two headings read alike, the source gives them in different places.

What was measured:
Format in all cases: biochemical
KHS/MAP4K5 = KHS/MAP4K5 (Homo sapiens, UniProt Q9Y4K4); test: Kinase selectivity panel, KHS/MAP4K5; conditions: for fold selectivity MAP4K4 over KHS/MAP4K5: in favour of MAP4K4; for IC50: read-out: pIC50 KHS/MAP4K5 (converted)
Text: (§1) The data in Table 42 also provides the fold selectivity of the two compounds in favour of MAP4K4 over the tested kinase. The fold selectivity is indicated in parenthesis.

MINK1/MAP4K6 = MINK1/MAP4K6 (Homo sapiens, UniProt Q8N4C8); test: Kinase selectivity panel, MINK1/MAP4K6; conditions: read-out: pIC50 MINK1/MAP4K6 (converted)
Text: as §1

NUAK1 = molecular target: T1, NUAK1 (Homo sapiens, UniProt O60285); test: Kinase selectivity panel, NUAK1; conditions: for fold selectivity MAP4K4 over NUAK1: in favour of MAP4K4; for IC50: read-out: pIC50 NUAK1 (converted)
T1 sequence (O60285 1-661): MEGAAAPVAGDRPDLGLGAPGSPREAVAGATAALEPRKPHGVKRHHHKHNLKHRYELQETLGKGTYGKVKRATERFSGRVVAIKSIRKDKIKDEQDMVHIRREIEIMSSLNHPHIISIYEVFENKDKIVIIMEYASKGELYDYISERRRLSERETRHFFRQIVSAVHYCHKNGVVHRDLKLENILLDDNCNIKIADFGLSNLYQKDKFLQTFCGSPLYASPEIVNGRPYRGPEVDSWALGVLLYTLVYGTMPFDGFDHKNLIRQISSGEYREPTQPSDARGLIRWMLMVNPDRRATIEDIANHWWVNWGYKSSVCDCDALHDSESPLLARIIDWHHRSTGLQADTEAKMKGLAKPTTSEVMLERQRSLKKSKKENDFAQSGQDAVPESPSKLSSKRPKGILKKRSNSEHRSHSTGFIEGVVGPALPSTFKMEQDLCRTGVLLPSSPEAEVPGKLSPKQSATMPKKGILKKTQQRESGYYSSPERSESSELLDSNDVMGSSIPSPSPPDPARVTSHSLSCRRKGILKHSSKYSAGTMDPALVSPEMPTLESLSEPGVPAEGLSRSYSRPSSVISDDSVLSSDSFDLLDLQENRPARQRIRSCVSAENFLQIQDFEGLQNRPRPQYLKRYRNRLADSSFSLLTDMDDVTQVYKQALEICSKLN
Text: as §1

MLK1/MAP3K9 = MLK1/MAP3K9 (Homo sapiens, UniProt P80192); test: Kinase selectivity panel, MLK1/MAP3K9; conditions: for fold selectivity MAP4K4 over MLK1/MAP3K9: in favour of MAP4K4; for IC50: read-out: pIC50 MLK1/MAP3K9 (converted)
Sequence of MLK1/MAP3K9 (P80192 whole entry): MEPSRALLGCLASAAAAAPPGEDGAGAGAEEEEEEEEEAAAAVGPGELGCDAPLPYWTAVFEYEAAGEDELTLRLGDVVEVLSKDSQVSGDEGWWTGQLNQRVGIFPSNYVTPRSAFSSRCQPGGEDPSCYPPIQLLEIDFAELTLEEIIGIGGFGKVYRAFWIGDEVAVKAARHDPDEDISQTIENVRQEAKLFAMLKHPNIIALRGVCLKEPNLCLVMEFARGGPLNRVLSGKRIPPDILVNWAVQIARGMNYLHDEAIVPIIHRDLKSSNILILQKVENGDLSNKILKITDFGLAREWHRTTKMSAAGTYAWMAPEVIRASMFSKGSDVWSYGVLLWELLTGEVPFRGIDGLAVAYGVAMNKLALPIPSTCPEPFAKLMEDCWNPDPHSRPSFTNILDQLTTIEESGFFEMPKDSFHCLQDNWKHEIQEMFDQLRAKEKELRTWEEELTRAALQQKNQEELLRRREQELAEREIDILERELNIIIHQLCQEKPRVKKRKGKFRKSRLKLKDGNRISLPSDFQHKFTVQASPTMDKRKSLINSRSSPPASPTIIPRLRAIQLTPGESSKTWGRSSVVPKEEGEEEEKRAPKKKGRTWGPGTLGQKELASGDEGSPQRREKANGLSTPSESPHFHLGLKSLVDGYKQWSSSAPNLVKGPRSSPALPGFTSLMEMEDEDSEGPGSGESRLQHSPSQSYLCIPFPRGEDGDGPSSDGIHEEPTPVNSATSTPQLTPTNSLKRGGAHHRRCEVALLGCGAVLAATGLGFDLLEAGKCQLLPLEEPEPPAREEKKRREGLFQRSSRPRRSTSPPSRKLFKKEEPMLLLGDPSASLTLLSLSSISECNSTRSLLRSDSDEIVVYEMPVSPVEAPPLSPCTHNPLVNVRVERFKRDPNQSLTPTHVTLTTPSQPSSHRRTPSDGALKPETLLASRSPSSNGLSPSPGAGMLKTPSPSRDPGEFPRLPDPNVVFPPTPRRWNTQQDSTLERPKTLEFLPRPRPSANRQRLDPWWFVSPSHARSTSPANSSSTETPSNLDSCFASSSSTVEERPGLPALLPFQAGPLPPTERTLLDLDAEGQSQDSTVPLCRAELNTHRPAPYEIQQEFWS
Text: as §1

GLK/MAP4K3 = molecular target: T2, GLK/MAP4K3 (Homo sapiens, UniProt Q8IVH8); test: Kinase selectivity panel, GLK/MAP4K3; conditions: in favour of MAP4K4
T2 sequence (Q8IVH8 1-894): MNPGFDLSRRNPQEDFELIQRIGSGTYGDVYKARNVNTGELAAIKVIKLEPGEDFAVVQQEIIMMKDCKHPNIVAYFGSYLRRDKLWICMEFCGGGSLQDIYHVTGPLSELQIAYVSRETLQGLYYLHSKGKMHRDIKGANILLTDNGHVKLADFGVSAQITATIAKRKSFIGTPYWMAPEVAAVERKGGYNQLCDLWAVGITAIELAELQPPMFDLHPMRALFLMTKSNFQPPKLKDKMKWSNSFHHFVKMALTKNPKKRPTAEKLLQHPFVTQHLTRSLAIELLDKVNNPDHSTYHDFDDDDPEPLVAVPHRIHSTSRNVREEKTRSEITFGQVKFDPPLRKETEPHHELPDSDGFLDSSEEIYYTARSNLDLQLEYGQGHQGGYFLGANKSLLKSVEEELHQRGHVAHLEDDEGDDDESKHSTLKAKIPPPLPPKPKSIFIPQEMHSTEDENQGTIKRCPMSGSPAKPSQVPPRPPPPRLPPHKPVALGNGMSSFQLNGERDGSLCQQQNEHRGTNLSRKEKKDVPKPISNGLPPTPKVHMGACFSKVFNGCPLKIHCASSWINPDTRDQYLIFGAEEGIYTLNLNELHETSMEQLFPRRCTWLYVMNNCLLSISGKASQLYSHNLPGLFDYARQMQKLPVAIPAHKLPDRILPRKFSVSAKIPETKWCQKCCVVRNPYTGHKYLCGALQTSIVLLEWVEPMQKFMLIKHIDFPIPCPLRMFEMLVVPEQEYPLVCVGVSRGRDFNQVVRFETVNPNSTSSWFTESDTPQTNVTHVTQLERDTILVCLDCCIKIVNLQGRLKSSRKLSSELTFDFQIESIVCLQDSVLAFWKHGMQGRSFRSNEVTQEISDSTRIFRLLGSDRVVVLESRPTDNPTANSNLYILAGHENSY
Text: as §1

MLK3/MAP3K11 = MLK3/MAP3K11 (Homo sapiens, UniProt Q16584); test: Kinase selectivity panel, MLK3/MAP3K11; conditions: for fold selectivity MAP4K4 over MLK3/MAP3K11: in favour of MAP4K4; for IC50: read-out: pIC50 MLK3/MAP3K11 (converted)
Sequence of MLK3/MAP3K11 (Q16584 whole entry): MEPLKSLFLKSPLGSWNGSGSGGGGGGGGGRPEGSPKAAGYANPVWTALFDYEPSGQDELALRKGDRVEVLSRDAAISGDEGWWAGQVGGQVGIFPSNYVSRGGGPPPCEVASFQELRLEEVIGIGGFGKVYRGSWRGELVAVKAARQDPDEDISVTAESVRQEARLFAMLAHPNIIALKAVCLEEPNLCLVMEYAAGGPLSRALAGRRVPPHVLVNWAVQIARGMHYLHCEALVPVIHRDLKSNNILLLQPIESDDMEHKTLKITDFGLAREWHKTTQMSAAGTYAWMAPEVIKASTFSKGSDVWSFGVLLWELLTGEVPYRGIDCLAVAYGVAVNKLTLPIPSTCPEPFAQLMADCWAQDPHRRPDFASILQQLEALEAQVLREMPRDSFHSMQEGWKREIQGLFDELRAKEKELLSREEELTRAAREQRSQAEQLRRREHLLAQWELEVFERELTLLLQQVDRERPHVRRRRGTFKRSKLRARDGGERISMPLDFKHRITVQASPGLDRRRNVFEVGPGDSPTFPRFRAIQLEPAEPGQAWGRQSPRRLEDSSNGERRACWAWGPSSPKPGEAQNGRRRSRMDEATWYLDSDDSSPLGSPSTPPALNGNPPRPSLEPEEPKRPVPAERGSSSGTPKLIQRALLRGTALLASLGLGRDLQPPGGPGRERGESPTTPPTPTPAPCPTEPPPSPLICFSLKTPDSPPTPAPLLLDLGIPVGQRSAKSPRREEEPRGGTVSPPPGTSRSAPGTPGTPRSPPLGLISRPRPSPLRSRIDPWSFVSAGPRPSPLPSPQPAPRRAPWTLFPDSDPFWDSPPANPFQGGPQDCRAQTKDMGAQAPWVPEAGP
Text: as §1

[1] = molecular target: T3, human MAP4K4 kinase domain (Homo sapiens, UniProt O95819); test: MAP4K4 kinase activity, CisBio HTRF Transcreener ADP assay
T3 construct: 0.5 nM human MAP4K4 kinase domain (Invitrogen); purchased Invitrogen
T3 sequence (O95819 25-289 limits assumed): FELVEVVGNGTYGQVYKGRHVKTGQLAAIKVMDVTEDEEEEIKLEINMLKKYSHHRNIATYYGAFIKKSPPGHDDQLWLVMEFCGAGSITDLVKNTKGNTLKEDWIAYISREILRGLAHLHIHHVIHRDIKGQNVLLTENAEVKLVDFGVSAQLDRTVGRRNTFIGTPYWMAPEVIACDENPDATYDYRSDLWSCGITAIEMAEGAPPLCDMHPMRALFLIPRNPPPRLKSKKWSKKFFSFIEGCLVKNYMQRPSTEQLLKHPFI
In short: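 HTRF Transcreener ADP read-out (665/620 nm ratio) of ADP formed by 0.5 nM kinase domain with 1 μM biotin-myelin basic protein substrate and ATP at Km (10 μM), 1% DMSO, 2 h reaction. IC50 values binned as A ≤100 nM, B 100 nM–1 μM, C >1 μM.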

Aurora B = Aurora B (Homo sapiens, UniProt Q96GD4); test: Kinase selectivity panel, Aurora B; conditions: for fold selectivity MAP4K4 over Aurora B: in favour of MAP4K4
Sequence of Aurora B (Q96GD4 whole entry): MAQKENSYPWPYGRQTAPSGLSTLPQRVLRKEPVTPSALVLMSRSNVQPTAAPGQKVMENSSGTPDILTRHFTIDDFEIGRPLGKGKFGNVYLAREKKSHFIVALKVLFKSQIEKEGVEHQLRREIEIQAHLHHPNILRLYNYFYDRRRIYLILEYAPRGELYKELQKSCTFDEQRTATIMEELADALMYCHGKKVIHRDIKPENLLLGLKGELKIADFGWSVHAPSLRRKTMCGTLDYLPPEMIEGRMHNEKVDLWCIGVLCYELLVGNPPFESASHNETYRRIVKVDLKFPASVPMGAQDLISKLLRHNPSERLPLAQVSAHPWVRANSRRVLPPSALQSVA
Text: as §1

TNIK/MAP4K7 = TNIK/MAP4K7 (Homo sapiens, UniProt Q9UKE5); test: Kinase selectivity panel, TNIK/MAP4K7; conditions: read-out: pIC50 TNIK/MAP4K7 (converted)
Sequence of TNIK/MAP4K7 (Q9UKE5 whole entry): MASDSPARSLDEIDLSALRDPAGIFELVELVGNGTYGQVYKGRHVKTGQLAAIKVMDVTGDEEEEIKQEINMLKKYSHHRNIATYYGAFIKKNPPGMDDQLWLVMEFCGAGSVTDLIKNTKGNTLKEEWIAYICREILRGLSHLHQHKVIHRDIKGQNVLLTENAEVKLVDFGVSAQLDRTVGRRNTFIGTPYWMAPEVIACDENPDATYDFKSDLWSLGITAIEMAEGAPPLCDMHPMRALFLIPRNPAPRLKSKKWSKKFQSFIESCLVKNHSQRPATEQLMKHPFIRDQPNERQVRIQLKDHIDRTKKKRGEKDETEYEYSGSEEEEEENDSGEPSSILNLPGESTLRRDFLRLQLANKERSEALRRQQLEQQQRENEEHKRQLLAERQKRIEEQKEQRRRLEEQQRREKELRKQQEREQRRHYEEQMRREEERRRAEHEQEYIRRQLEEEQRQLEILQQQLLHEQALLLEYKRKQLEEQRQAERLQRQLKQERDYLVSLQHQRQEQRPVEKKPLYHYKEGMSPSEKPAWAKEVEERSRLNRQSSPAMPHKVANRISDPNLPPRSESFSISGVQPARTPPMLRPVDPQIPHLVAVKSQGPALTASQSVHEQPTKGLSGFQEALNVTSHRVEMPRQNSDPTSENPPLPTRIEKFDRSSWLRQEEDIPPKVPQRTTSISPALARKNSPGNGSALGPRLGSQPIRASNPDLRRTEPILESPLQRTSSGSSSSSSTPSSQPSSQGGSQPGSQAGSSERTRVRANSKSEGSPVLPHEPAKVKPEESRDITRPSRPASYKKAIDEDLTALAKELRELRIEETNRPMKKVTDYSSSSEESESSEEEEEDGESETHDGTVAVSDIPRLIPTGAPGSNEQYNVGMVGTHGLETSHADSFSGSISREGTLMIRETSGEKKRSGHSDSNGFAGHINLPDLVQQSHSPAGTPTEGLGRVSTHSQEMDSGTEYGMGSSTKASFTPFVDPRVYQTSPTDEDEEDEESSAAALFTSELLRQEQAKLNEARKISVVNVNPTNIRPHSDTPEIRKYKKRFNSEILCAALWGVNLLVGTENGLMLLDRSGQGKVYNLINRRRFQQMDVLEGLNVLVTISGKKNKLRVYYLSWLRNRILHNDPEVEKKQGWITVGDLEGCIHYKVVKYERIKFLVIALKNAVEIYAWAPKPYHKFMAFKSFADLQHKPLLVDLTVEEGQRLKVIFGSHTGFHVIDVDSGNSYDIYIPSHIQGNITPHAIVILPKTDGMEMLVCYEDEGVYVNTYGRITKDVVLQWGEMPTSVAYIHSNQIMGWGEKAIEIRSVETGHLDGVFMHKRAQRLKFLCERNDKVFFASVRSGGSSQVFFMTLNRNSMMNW
Text: as §1

GCK/MAP4K2 = molecular target: T4, GCK/MAP4K2 (Homo sapiens, UniProt Q12851); test: Kinase selectivity panel, GCK/MAP4K2; conditions: for fold selectivity MAP4K4 over GCK/MAP4K2: in favour of MAP4K4; for IC50: read-out: pIC50 GCK/MAP4K2 (converted)
T4 sequence (Q12851 1-820): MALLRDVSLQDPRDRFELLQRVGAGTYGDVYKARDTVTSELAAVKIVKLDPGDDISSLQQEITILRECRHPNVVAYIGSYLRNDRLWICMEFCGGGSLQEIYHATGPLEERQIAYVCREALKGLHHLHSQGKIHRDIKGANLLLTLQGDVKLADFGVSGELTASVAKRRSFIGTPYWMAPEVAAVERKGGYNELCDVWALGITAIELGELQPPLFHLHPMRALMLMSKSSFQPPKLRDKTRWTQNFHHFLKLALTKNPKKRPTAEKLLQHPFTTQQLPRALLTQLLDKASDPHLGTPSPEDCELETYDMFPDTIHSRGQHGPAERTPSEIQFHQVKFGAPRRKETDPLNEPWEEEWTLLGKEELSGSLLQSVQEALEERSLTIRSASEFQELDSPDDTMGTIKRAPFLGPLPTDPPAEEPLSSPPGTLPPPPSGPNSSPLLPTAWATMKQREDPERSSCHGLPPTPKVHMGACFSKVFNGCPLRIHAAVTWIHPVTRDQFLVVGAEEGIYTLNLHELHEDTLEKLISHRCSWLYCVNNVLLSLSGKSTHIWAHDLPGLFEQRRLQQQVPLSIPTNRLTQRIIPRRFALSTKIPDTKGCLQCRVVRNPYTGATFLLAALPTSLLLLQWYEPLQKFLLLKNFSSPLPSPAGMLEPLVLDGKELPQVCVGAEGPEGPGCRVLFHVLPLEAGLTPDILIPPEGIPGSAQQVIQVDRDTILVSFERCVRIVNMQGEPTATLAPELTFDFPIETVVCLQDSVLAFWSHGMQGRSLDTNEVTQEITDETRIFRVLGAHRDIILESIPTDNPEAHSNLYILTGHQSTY
Text: as §1

ABL1 = ABL1 (Homo sapiens, UniProt P00519); test: Kinase selectivity panel, ABL1
Text: as §1

[2] = IC50 category, ATP at Km (10 μM), 0.5 nM kinase domain, 2 h, read-out: MAP4K4
[3] = read-out: pIC50 MAP4K4 (converted)

Sequence of KHS/MAP4K5 (Q9Y4K4 whole entry): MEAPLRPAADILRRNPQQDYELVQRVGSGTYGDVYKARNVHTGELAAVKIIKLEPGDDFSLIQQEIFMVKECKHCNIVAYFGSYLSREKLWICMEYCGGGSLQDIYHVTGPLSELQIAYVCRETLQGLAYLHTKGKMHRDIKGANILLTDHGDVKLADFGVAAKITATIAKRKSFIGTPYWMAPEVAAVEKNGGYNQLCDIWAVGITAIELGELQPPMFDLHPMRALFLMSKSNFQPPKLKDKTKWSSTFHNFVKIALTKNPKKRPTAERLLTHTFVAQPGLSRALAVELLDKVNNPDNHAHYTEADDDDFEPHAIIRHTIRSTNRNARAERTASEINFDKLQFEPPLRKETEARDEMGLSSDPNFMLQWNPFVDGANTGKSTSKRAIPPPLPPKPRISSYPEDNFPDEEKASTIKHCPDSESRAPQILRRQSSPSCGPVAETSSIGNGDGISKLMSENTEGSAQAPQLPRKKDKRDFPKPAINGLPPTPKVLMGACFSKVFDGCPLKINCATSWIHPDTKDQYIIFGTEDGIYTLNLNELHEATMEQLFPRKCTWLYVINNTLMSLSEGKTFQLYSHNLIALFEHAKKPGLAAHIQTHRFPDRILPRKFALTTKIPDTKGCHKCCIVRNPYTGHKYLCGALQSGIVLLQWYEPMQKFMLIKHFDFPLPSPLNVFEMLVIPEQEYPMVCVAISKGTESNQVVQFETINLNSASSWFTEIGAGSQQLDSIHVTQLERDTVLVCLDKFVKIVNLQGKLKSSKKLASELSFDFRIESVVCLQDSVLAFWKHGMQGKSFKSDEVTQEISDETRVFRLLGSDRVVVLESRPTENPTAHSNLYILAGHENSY

| fold selectivity MAP4K4 over KHS/MAP4K5 (KHS/MAP4K5) | IC50 (KHS/MAP4K5) | IC50 (MINK1/MAP4K6) | fold selectivity MAP4K4 over NUAK1 (NUAK1) | IC50 (NUAK1) | fold selectivity MAP4K4 over MLK1/MAP3K9 (MLK1/MAP3K9) | IC50 (MLK1/MAP3K9) | fold selectivity MAP4K4 over GLK/MAP4K3 (GLK/MAP4K3) | fold selectivity MAP4K4 over MLK3/MAP3K11 (MLK3/MAP3K11) | IC50 (MLK3/MAP3K11) | IC50 [1, 2] | IC50 [1, 3] | fold selectivity MAP4K4 over Aurora B (Aurora B) | IC50 (TNIK/MAP4K7) | fold selectivity MAP4K4 over GCK/MAP4K2 (GCK/MAP4K2) | IC50 (GCK/MAP4K2) | fold selectivity MAP4K4 over ABL1 (ABL1; in favour of MAP4K4) | IC50 (ABL1; read-out: pIC50 ABL1 (converted)) | IC50 (Aurora B; read-out: pIC50 Aurora B (converted)) | SMILES |
| --- | --- | --- | --- | --- | --- | --- | --- | --- | --- | --- | --- | --- | --- | --- | --- | --- | --- | --- | --- |
| (50) fold | 1000 nM | 12.6 nM | (16) fold | 316 nM | (20) fold | 398 nM | (>1000) fold | (25) fold | 501 nM | ≤ 100 nM | 20 nM | (>1000) fold | 31.6 nM | (50) fold | 1000 nM | – | – | – | COCCOc1ccc(-c2cn(-c3cccc(F)c3)c3nc[nH]c(=O)c23)cn1 [Ex-29] |
| (63) fold | 794 nM | 31.6 nM | (251) fold | 3160 nM | (398) fold | 5010 nM | – | (79) fold | 1000 nM | ≤ 100 nM | 12.6 nM | (501) fold | 50.1 nM | (79) fold | 1000 nM | (501) fold | 6310 nM | 6310 nM | COCCOc1ccc(-c2cn(-c3ccncc3)c3nc[nH]c(=O)c23)cc1 [Ex-28] |
